What was measured:
LRRK2 [1] = test: Western blot screening of PROTACs in WT and G2019S LRRK2 MEFs; assay type: cell-based, mouse
Experimental: These PROTACs were then biologically evaluated in mouse embryonic fibroblasts (MEFs) by Western blotting. Briefly, MEFs were treated with compounds at 33 nM and 1 μM for 4 h (Figure 2) and 24 h (Figure S2) separately, and the intracellular level of LRRK2, phosphorylated LRRK2 at Ser935, and phosphorylated Rab10 (pRab10) at Thr73 was determined. Rab10[5],[49] is one of the bona fide substrates of LRRK2, whose phosphorylation status is directly affected by the LRRK2 kinase activity and protein level. Phosphorylation of LRRK2 at Ser935 is a well-studied biomarker site used to assess the efficacy of type 1 LRRK2 inhibitors.[30]
Primary MEFs were generated as described in a previous study.[80] Briefly, the uterine horn was collected from adult female mice at day E12.5 and transferred to a 10 cm tissue culture dish containing cold PBS. Two forceps were used to tear the yolk sacs to isolate each embryo. Forceps were cleaned thoroughly with 70% ethanol between each embryo isolation. The embryos were culled, and a tissue piece was collected in a polymerase chain reaction (PCR) tube for genotyping. The red tissue of the embryo was removed, and the remainder was minced with a scalpel blade and incubated with a 7.5 mL trypsin–ethylenediaminetetraacetic acid (EDTA) solution for 10 min in a 37 °C, 5% CO2 tissue culture incubator. The dish was removed from the incubator and checked under a light microscope for single cells. Complete media (7.5 mL) was added to the trypsinized cells, and the cell suspension was transferred to a 15 mL Falcon tube and centrifuged at 1200 rpm for 5 min at room temperature. The trypsin was aspirated, the cell pellet was resuspended in a 5 mL fresh complete media, and the cell suspension was plated in a 60 mm tissue culture dish and incubated in a 37 °C, 5% CO2 tissue culture incubator. The MEFs at this stage were considered as passage 0 and were passaged and expanded for experimental use once the genotype was confirmed by allelic sequencing and immunoblotting. MEFs were cultured in Dulbecco’s modified Eagle’s medium (DMEM) containing 10% (v/v) fetal bovine serum (FBS), 2 mM L-glutamine, 100 U/mL penicillin, and 100 μg/mL streptomycin supplemented with 1× nonessential amino acids and 1 mM sodium pyruvate.
Culturing and passaging of adherent cell lines were carried out using an aseptic technique in CL1 or CL2 (for PBMC isolation) biological safety cabinets. All cells were incubated in a 37 °C incubator with 5% CO2. Cell lines were regularly tested for mycoplasma contamination. For Western blot assay, the cells were seeded in six-well plates.

LRRK2 [2] = test: LRRK2 degradation in multiple cell lines (summary); assay type: cell-based
Excerpt: Leucine-rich repeat kinase 2 (LRRK2) is one of the most promising targets for Parkinson’s disease.

[3] = Mouse hepatocyte stability; assay type: in vitro ADME; settings: mouse hepatocytes
Experimental: Fifty microliters of prewarmed hepatocytes (2 × 10^6 cells/mL) in suspension media (Krebs–Henseleit buffer (Sigma-Aldrich) containing 5.6 g/L HEPES) was mixed with 50 μL of prewarmed compound dosing solution (2 μM in Krebs–Henseleit buffer with 1% DMSO). After incubating at 37 °C for 15, 30, 60, or 120 min, 100 μL of acetonitrile containing internal standard was added to quench the reaction. For 0 min incubation, acetonitrile was mixed with hepatocytes first before adding the compound solution. After quenching, the mixture was shaken at a vibrator for 10 min (600 rpm/min) and then sonicated for 2 min before centrifugation (5594g for 15 min). The supernatant was taken and diluted for LC-MS analysis.

SMILES: CNc1nc(Nc2ccc(C(=O)N3CCN(CCOCCOCCSC(C)(C)[C@H](NC(=O)C4(F)CC4)C(=O)N4C[C@H](O)C[C@H]4C(=O)NCc4ccc(-c5scnc5C)cc4)CC3)cc2OC)ncc1Cl [SD75]
- degradation of LRRK2 (LRRK2 [1]; 0.033 µM): < 40%
- degradation of LRRK2 (in words) (LRRK2 [1]; 33 nM/4 h, WT and G2019S LRRK2 MEFs): little to no degradation

SMILES: CNc1nc(Nc2ccc(C(=O)N3CCN(C[C@H]4CC[C@H](CSC(C)(C)[C@H](NC(=O)C5(F)CC5)C(=O)N5C[C@H](O)CC5C(=O)NCc5ccc(-c6scnc6C)cc5)CC4)CC3)cc2OC)ncc1Cl (stereo partly drawn) [XL01126, (2S,4R)-1-((R)-3-((((1R,4R)-4-((4-(4-((5-Chloro-4-(methylamino)pyrimidin-2-yl)amino)-3-methoxybenzoyl)piperazin-1-yl)methyl)cyclohexyl)methyl)thio)-2-(1-fluorocyclopropane-1-carboxamido)-3-methylbutanoyl)-4-hydroxy-N-(4-(4-methylthiazol-5-yl)benzyl)pyrrolidine-2-carboxamide]
- DC50 (LRRK2 [2]): 14 to 72 nM
- Dmax values (LRRK2 [2]): 82 to 90%
- CLint scaled at 1 µM [3]: 26 mL/min/kg
- half-life at 1 µM ([3]; read-out: T1/2 in mouse hepatocytes): 5.24 h
